The source of these data is paper PMC8739290, “A phase 1b study of erlotinib and momelotinib for the treatment of EGFR-mutated, tyrosine kinase inhibitor-naive metastatic non-small cell lung cancer” (Cancer Chemotherapy and Pharmacology, 2021).

Like-named read-outs stand apart in the source and are kept apart here.

Data set [1] deals with PC-9 xenograft tumors and EGFR-mutant transgenic mice. On the set-up: method as in PMID 24238495. To be noted: cited from earlier work.
The test system of data set [2] is EGFR-mutated NSCLC lines. Set-up: method as in PMID 18060032. To be noted: multiple EGFR-mutated NSCLC lines; cited from earlier work.
Data set [3] deals with HCC827 xenograft model. On the set-up: method as in doi:10.1158/1538-7445.AM2018-2938. To be noted: cited from earlier work.
Data set [4] in a line: Pharmacokinetics of erlotinib during monotherapy and in combination with momelotinib (LC–MS/MS). The format is in vivo, human. To be noted: momelotinib 100 mg QD, 200 mg QD, 100 mg BID. On the procedure: (§1) Prior to momelotinib dosing, blood samples were collected before a dose of erlotinib and at 0.5, 1, 2, 4, 6, 8, and 24 h after erlotinib dosing. On day 15 of cycle 1, blood samples were collected at the same time points after dosing with momelotinib and erlotinib (the 24-h time point was only applicable for momelotinib QD dosing). The concentrations of momelotinib and its major metabolite GS-644603 were evaluated using a liquid chromatography-tandem mass spectrometry (LC–MS/MS) assay with solid phase extraction validated over the range of 0.5–1000 ng/mL for each analyte. The concentration of erlotinib was determined using an LC–MS/MS assay with protein precipitation validated over the range of 5–5000 ng/mL. […] Pharmacokinetic (PK) parameters were estimated using standard noncompartmental methods with Phoenix WinNonlin® software (Certara, Princeton, NJ).
(§2) Any patient who received ≥ 1 dose of study drug was included in the safety and efficacy analyses. Descriptive statistics were used to summarize study characteristics, DLTs, and AEs, including by dose level. ORR was summarized with corresponding two-sided 90% exact confidence intervals (CIs) using the binomial distribution. Both OS and PFS were summarized using Kaplan–Meier estimates and corresponding 90% CIs. Patient concentration data and PK parameters for erlotinib, momelotinib, and its major metabolite GS-644603 were summarized by dose level using descriptive statistics.

Data set [5] in a line: Steady-state pharmacokinetics of momelotinib and metabolite GS-644603 (LC–MS/MS, noncompartmental). Format: in vivo, human. To be noted: for half-life / Cmax / Tmax: day 15 of cycle 1; for half-life / Tmax: median (Q1, Q3); for Cmax: mean (%CV). The protocol:
as §1, §2

Data set [6] deals with pSTAT3 in IL-6–stimulated lymphocytes. Put plainly: pSTAT3 phospho-flow cytometry on whole blood of patients after 2 weeks on momelotinib (exploratory). To be noted: whole blood of 8 patients, data not shown. The format is cell-based, human. (In flow cytometry, cells or beads pass a laser one at a time.)
The test system of data set [7] is JAK1/2-mediated STAT3 phosphorylation in IL-6–stimulated human peripheral blood mononuclear cells. To be noted: read-out: mean half maximal effective concentration, inhibition of JAK1/2-mediated STAT3 phosphorylation; cited from earlier work.
Data set [8] concerns patients with EGFR TKI-naive, EGFR-mutated NSCLC. Put plainly: Safety in phase 1b dose-escalation study: DLTs and adverse events (CTCAE version 4.03).
Text: This was an open-label, dose-escalation phase 1b study, which comprised a dose-escalation phase, followed by a planned, randomized, expansion phase of the combination of erlotinib plus momelotinib vs. erlotinib alone (ClinicalTrials.gov Identifier: NCT02206763). An erlotinib lead-in was utilized during the dose-escalation phase since erlotinib’s toxicities of rash and diarrhea onset in the first 2–3 weeks of treatment allowing for (i) dose adjustment for erlotinib-related toxicities as per clinical standard of care prior to combination with momelotinib; (ii) examination of the impact of momelotinib on erlotinib steady-state pharmacokinetics; and (iii) accurate assessment of toxicity attribution during the combination treatment period.
Patients were screened within 28 days of the start of study treatment and cycles were defined as 28 days. Erlotinib was self-administered orally once daily (QD) at least 1 h before or 2 h after a meal, with doses permitted at 50, 75, 100, or 150 mg. Dose reductions were permitted for management of erlotinib-related toxicity such as rash and diarrhea. Momelotinib was dose escalated following a standard 3 + 3 design starting at 100 mg QD (Table 1). Momelotinib was self-administered orally QD or twice daily (BID) (Table 1), with the latter planned dosing frequency differing from that used in myelofibrosis trials. Study treatment continued until disease progression, unacceptable toxicity, or consent withdrawal.
The primary endpoint was the incidence of dose-limiting toxicities (DLTs). Physical exams and safety labs were performed on day 1 of cycle 1, day 15 of cycle 1, and on the first day of each cycle thereafter. Adverse events (AEs) were coded using the Medical Dictionary for Regulatory Activities (MedDRA), graded according to the Common Terminology Criteria for Adverse Events (CTCAE) version 4.03, and collected until 30 days after the last dose of the study treatment.
DLTs were assessed during the first 28 days of combined erlotinib and momelotinib treatment and defined as clinically significant AEs related to study treatment. Prespecified hematologic DLTs only included grade 4 neutropenia (absolute neutrophil count [ANC] < 500/μL) and grade 4 thrombocytopenia (platelet count < 25,000/μL). Important exceptions for related grade 3 nonhematologic toxicities included grade 3 nausea or vomiting ≤ 48 h duration, diarrhea or rash that improved to grade 0 to 1 within 21 days of interruption of erlotinib, and alanine aminotransferase (ALT) or aspartate aminotransferase (AST) ≥ 5 times the upper limit of normal (ULN) that improved to ≤ 3 times the ULN within 21 days. Treatment delays of ≥ 28 days due to a treatment-emergent AEs (TEAEs) were also considered DLTs.
as §2

In data set [9] the test system is pancreatic adenocarcinoma. On the set-up: method as in PMID 30105668. To be noted: momelotinib added to nab-paclitaxel and gemcitabine; cited from earlier work.
Data set [10] has as its system EGFR-mutated NSCLC. Kind of data set: Efficacy in phase 1b study per RECIST version 1.1 (ORR, DoR, PFS, OS). The format is in vivo, human. On the procedure: Imaging by computed tomography (CT) with contrast was performed at baseline, every 8 weeks during year 1 and every 12 weeks thereafter. If a patient had brain metastases, brain magnetic resonance imaging (MRI) was repeated on the same schedule.

The subject of data set [11] is patients with KRAS-mutated NSCLC. On the set-up: method as in PMID 30087028. To be noted: cited from earlier work.
Where [12] appears, read: human, in vivo, oral, momelotinib analyte, momelotinib 100 mg QD + erlotinib, n = 2.
[13] abbreviates: human, in vivo, oral, momelotinib analyte, momelotinib 200 mg QD + erlotinib, n = 2.
[14] abbreviates: momelotinib 200 mg QD vs 100 mg QD, with erlotinib, momelotinib analyte.
Where [15] appears, read: with erlotinib, compared with ref 35.

Take `Cc1cc(Nc2nc(N[C@@H](C)c3ncc(F)cn3)ncc2Cl)n[nH]1` [AZD1480]: in data set [1] (PC-9 xenograft tumors and EGFR-mutant transgenic mice), the single-agent activity entry was “independent activity”. Further, in data set [1], the “number of lung tumors” value is reported as “decreased number of lung tumors” and the overall survival result is reported as “improved overall survival”.
Regarding `CC(C)(C)c1nc2c3ccc(F)cc3c3c(=O)[nH]ccc3c2[nH]1` [P6], in data set [2], the “effect on cell cycle” value is “cell-cycle arrest at the G2/M phase”, the “effect on colony formation” value was “suppressed colony formation” and the “effect on phosphorylated-STAT3 (pSTAT3)” value was “uniformly abrogated pSTAT3”.
Take `N#CCC1(n2cc(-c3ncnc4[nH]ccc34)cn2)CN(C2CCN(C(=O)c3ccnc(C(F)(F)F)c3F)CC2)C1` [itacitinib]: in data set [3] (HCC827 xenograft model), the single-agent activity result was “independent activity”. For the same molecule, the “tumor growth inhibition in combination” value in data set [3] (itacitinib in combination with erlotinib or osimertinib) is reported as “synergistic tumor growth inhibition”.
The half-life is the time needed for the level to fall by half in the phase considered. For orientation: Cmax means the highest concentration seen after dosing. Take `N#CCNC(=O)c1ccc(-c2ccnc(Nc3ccc(N4CCOCC4)cc3)n2)cc1` [momelotinib]: in data set [4], the “impact of momelotinib on the PK of erlotinib” value is listed as “no impact”. Besides, the half-life in data set [5] (human, blood, oral, momelotinib analyte, momelotinib 100 mg BID + erlotinib, n = 4) was 8.6 h. Also, the Cmax in data set [5] (human, in vivo, oral, momelotinib analyte, momelotinib 100 mg BID + erlotinib, n = 4) worked out at 0.885 µg/mL. For the same molecule, in data set [5] (setting [12]), the Cmax came to 0.528 µg/mL and the half-life was 11.8 h. Moreover, in data set [5] (setting [13]), the Cmax was 0.853 µg/mL and the half-life stood at 10.2 h. Also, the Tmax in data set [5] (human, in vivo, oral, momelotinib analyte, momelotinib 200 mg QD + erlotinib, n = 2, read-out: Tmax) was determined as 1.5 h. In data set [5] (setting [14]), the “dose proportionality of Cmax” value is “slightly less than dose-proportional increase” and the “dose proportionality of exposure (AUCtau)” value was “slightly more than dose-proportional increase”. Besides, the Tmax in data set [5] (momelotinib analyte, momelotinib 100 mg BID + erlotinib, n = 4) was 1.0 (1.0, 1.5) h. Also, the Tmax in data set [5] (momelotinib analyte, momelotinib 100 mg QD + erlotinib, n = 2) is given as 1.0 (1.0, 1.0) h. Moreover, the “time to momelotinib peak concentration after dosing” value in [5] (steady state, day 15 of cycle 1, with erlotinib) was in the range of 1 to 2 h. Further, in data set [5] (setting [15]), the “momelotinib maximum concentration and exposure compared with earlier reports” value is recorded as “higher than previously reported”; the “momelotinib terminal elimination half-life compared with earlier reports” value is given as “prolonged”. Moreover, the “pSTAT3 inhibition in IL-6–stimulated lymphocytes” value in [6] (after 2 weeks on treatment) is listed as “temporarily inhibited pSTAT3 shortly after dosing”. Further, the “correlation between total plasma momelotinib concentration and pSTAT3 inhibition” value in data set [6] is “no correlation”. Moreover, in data set [7], the EC50 was 0.259 µM. Besides, the “grade 1 reactivation of hepatitis B” value in data set [8] (1 year after start of momelotinib + erlotinib, led to discontinuation of both) stood at 1 patient. For the same molecule, the treatment-related deaths entry in data set [8] (all dose levels, momelotinib + erlotinib) was “no treatment-related deaths observed”. In data set [8] (human, in vivo), the “dose interruptions of momelotinib” value is on record as 5 n, the “dose reductions of momelotinib (due to AEs)” value worked out at 2 n and the “patients who discontinued momelotinib for AEs” value came out at 27.3%. The “maximum tolerated dose (MTD) of momelotinib” value in data set [8] (in combination with standard dosing of erlotinib, 3 + 3 design, DLTs in first 28 days) is reported as 200 mg QD. Moreover, the “efficacy vs historical control chemotherapy” value in data set [9] is recorded as “did not improve efficacy”. The “reductions from baseline in sum of diameters of target lesions, range” value in data set [10] (momelotinib + erlotinib, across dose levels) was in the range of 23.1 to 71.7%. For the same molecule, the “mean best percentage change in the sum of diameters of target lesions” value in data set [10] (momelotinib + erlotinib, across dose levels, N = 11) was −42.5 ± 17.1%. In addition, in data set [10] (momelotinib + erlotinib, all dose levels, 6 of 11 patients, 90% CI 27.1–80.0), the “overall response rate (ORR), confirmed, all partial” value worked out at 54.5%. Further, the “progressive disease (PD) as best response” value in data set [10] (momelotinib + erlotinib, 1 patient, dose level 2B) came to 9.1%. In addition, the stable disease in [10] (momelotinib + erlotinib, 4 of 11 patients) was 36.4%. The “median duration of response (DoR)” value in data set [10] (momelotinib + erlotinib, 90% CI 4.4–9.6) is reported as 7.2 months. Moreover, the “median PFS” value in [10] (momelotinib + erlotinib, Kaplan–Meier, 90% CI 6.2–12.4) amounted to 9.2 months. For the same molecule, the “median OS” value in data set [10] (momelotinib + erlotinib, data finalization April 24, 2017) is “not reached”. Also, the “longest DoR” value in data set [10] (patient at dose level 2B, momelotinib 100 mg BID + erlotinib) came out at 11.2 months. Besides, in data set [11] (momelotinib added to trametinib, KRAS-mutated NSCLC), the “efficacy vs historical control trametinib monotherapy” value is “did not improve efficacy”. In addition, the neutropenia result in [11] (momelotinib dosed up to 150 mg BID in combination with trametinib) is reported as “no neutropenia event”.
